Assay: EVA copolymer film permeation (modified Franz cell), release of active substance from pressure-sensitive adhesive film
Type: in vitro ADME
Conditions: neutralization degrees 0 to 100% (KOH); EVA membrane; FIGS. 4, 5 and 6
Method: Examinations on the thermodynamics of a model of ethylene vinyl acetate (EVA) copolymer film permeation
For three basic pharmaceutical active agents, the release behaviour from an acid polyacrylate pressure-sensitive adhesive film in dependence from the neutralization of the adhesive and from the reagent used for this purpose was examined. All tests on EVA membrane were carried out with n=3 samples.
To this end, the active substance-containing pressure-sensitive adhesive films were stuck on an EVA film as carrier membrane, and the amount of active agent released over time through this membrane to an aqueous medium buffered to pH 5.5 and located on the opposite side was quantified by appropriate HPLC methods. […] Since in the embodiment examples the active substance represents the only component which is low-molecular and capable of migration, it is the tendency of exclusively this active substance to exudate from the polymer matrix of the pressure-sensitive adhesive and to migrate into the acceptor medium after passing through the EVA membrane which is recorded.
Independently of the permeation properties of human skin for such an active substance, the release tendency of the system in respect of the active substance as measured here is the most essential impetus for transdermal therapy by means of such a system. […]

CCN(C)C(=O)Oc1cccc([C@H](C)N(C)C)c1 [rivastigmin]
dependence of the permeated active substance amount / release rate on the neutralization degree: strong dependence of the effect from the neutralization degree
